Like-named read-outs stand apart in the source and are kept apart here.
How the values were obtained:
[1] = system: U251 glioblastoma cell line; assay: Alamar Blue cell viability assay of radiosensitization (PCLX-001 pre-treatment plus radiation); type: cell-based, human
Description: Cancer cell lines of human origin were cultivated in the suitable culture medium enriched with 10% fetal bovine serum (FBS) and a 1% mixture of penicillin-streptomycin. These were incubated at a temperature of 37° C. in a 5% CO2 humid environment. The cells were sub-cultured upon reaching a confluence of 80% with the aid of 0.25% trypsin-EDTA [Freshney, R. I., 2010. Culture of animal cells: a manual of basic technique and specialized applications. John Wiley & Sons].
PCLX-001 was prepared at several concentrations for use as a radiosensitizing drug (serial dilutions from 1000 nM, including control 0 nM) in culture media. The cancer cells cultures were then treated with the aforementioned PCLX-001 concentrations and left for 24 h, 48 h, 72 h, and 96 h to allow for maximum pharmacodynamic effect. The cells were then plated into 96-well plates at 5000 cells per well and left to attach overnight while continuing to incubate in the drug/media cocktail.
Upon completion of the PCLX-001 incubation period, a single radiation dose was administered to the cells using a preclinical irradiator. The quantity of radiation was decided based on the results from prior optimization tests [Hall, E. J., Giaccia, A. J., 2012. Radiobiology for the radiologist. Lippincott Williams & Wilkins.]. The radiation doses included 0, 2, and 4 Gy, which corresponds to the most common clinical radiation dose fractions used.
72 hours post-radiation, an Alamar Blue Assay was conducted to determine cell viability. Alamar Blue dye was added to the media (10% v/v) and the plates were incubated at 37° C. for 4 hours. Using a fluorescence plate reader, fluorescence was measured at excitation/emission wavelengths of 560/590 nm. To quantify cell viability, the results were normalized to the data from untreated controls [Ahmed, S. A., et al., 1994].
The data were shown as mean±standard deviation (SD) gathered from three or more independent tests. A one-way ANOVA followed by a post hoc Tukey test was used for statistical analyses to find significant disparities between treatment groups. […]

[2] = Plasma pharmacokinetics in phase I clinical trial NCT04836195 (oral daily dose); type: in vivo, human; conditions: for AUC(0-t) / Cmax / Tmax / half-life: human, plasma; for AUC(0-t): read-out: AUC0-24 (mean, SD); for Cmax: read-out: Cmax (mean, SD)
Description: A phase I, multicenter, nonrandomized, open-label study of zelenirstat, entitled “Phase I Trial of PCLX-001 in B-cell Non-Hodgkin Lymphoma and Advanced Solid Malignancies” (reference 6), is being conducted and is registered at clinicaltrials.gov as NCT04836195. In this study, PCLX-001 was administered as an oral daily dose every morning to patients with advanced cancer, on 28-day cycles, until toxicity or progressive disease. Peripheral blood samples were collected over six time points in the first 8 hours of cycle 1 day 1, and again on cycle 1 day 15, with pretreatment day 1 levels obtained with every subsequent cycle. PCLX-001/zelenirstat plasma concentrations were quantified using a validated ultra-performance liquid chromatography with tandem mass spectrometry detection and analyzed using a nonlinear mixed-effects model.

[3] = oral, 20 mg, 20 mg, Cycle 1 D15
[4] = oral, 40 mg, 40 mg, Cycle 1 D15
[5] = oral, 70 mg, 70 mg, Cycle 1 D15
[6] = oral, 100 mg, 100 mg, Cycle 1 D1
[7] = oral, 100 mg, 100 mg, Cycle 1 D15
[8] = oral, 140 mg, 140 mg, Cycle 1 D1
[9] = oral, 140 mg, 140 mg, Cycle 1 D15
[10] = oral, 210 mg, 210 mg, Cycle 1 D1
[11] = oral, 210 mg, 210 mg, Cycle 1 D15

Cc1c(N[S+](=O)(O)c2c(Cl)cc(-c3ccnc(N4CCNCC4)c3)cc2Cl)c(CC(C)C)nn1C [PCLX-001]
dose-enhancement factor ([1]; U251, below 25 nM): below 1.2 | toxicity of the drug itself versus radiotherapy effect ([1]; above 150 nM): toxicity of the drug itself exceeds the effect of typical radiotherapy dose-per-fraction's effect | increase of radiotherapy's effectiveness ([1]; cancer cell line tested (human glioblastoma)): about 80% | AUC(0-t) ([2]; oral, 20 mg, 20 mg, Cycle 1 D1): 1580 ng·h/mL | Cmax ([2]; oral, 20 mg, 20 mg, Cycle 1 D1): 276 ng/mL | Tmax ([2]; oral, 20 mg, 20 mg, Cycle 1 D1, read-out: Tmax (median, range)): 2 h | half-life ([2]; oral, 20 mg, 20 mg, Cycle 1 D1, read-out: t½ (mean, SD) (converted)): 6.7 h | AUC(0-t) [2, 3]: 2070 ng·h/mL | Cmax [2, 3]: 359 ng/mL | Tmax ([2]; oral, 20 mg, 20 mg, Cycle 1 D15, read-out: Tmax (median, range)): 1 h | half-life ([2]; oral, 20 mg, 20 mg, Cycle 1 D15, read-out: t½ (mean, SD) (converted)): 7.4 h | AUC(0-t) ([2]; oral, 40 mg, 40 mg, Cycle 1 D1): 4820 ng·h/mL | Cmax ([2]; oral, 40 mg, 40 mg, Cycle 1 D1): 848 ng/mL | Tmax ([2]; oral, 40 mg, 40 mg, Cycle 1 D1, read-out: Tmax (median, range)): 0.9 h | half-life ([2]; oral, 40 mg, 40 mg, Cycle 1 D1, read-out: t½ (mean, SD) (converted)): 9.2 h | AUC(0-t) [2, 4]: 7060 ng·h/mL | Cmax [2, 4]: 774 ng/mL | Tmax ([2]; oral, 40 mg, 40 mg, Cycle 1 D15, read-out: Tmax (median, range)): 2.2 h | half-life ([2]; oral, 40 mg, 40 mg, Cycle 1 D15, read-out: t½ (mean, SD) (converted)): 9.7 h | AUC(0-t) ([2]; oral, 70 mg, 70 mg, Cycle 1 D1): 5650 ng·h/mL | Cmax ([2]; oral, 70 mg, 70 mg, Cycle 1 D1): 665 ng/mL | Tmax ([2]; oral, 70 mg, 70 mg, Cycle 1 D1, read-out: Tmax (median, range)): 3.9 h | half-life ([2]; oral, 70 mg, 70 mg, Cycle 1 D1, read-out: t½ (mean, SD) (converted)): 9.5 h | AUC(0-t) [2, 5]: 6610 ng·h/mL | Cmax [2, 5]: 467 ng/mL | Tmax ([2]; oral, 70 mg, 70 mg, Cycle 1 D15, read-out: Tmax (median, range)): 4.1 h | AUC(0-t) [2, 6]: 18900 ng·h/mL | Cmax [2, 6]: 2190 ng/mL | Tmax ([2]; oral, 100 mg, 100 mg, Cycle 1 D1, read-out: Tmax (median, range)): 2 h | half-life ([2]; oral, 100 mg, 100 mg, Cycle 1 D1, read-out: t½ (mean, SD) (converted)): 8 h | AUC(0-t) [2, 7]: 24700 ng·h/mL | Cmax [2, 7]: 2300 ng/mL | Tmax ([2]; oral, 100 mg, 100 mg, Cycle 1 D15, read-out: Tmax (median, range)): 4 h | half-life ([2]; oral, 100 mg, 100 mg, Cycle 1 D15, read-out: t½ (mean, SD) (converted)): 12 h | AUC(0-t) [2, 8]: 11900 ng·h/mL | Cmax [2, 8]: 1770 ng/mL | Tmax ([2]; oral, 140 mg, 140 mg, Cycle 1 D1, read-out: Tmax (median, range)): 1 h | half-life ([2]; oral, 140 mg, 140 mg, Cycle 1 D1, read-out: t½ (mean, SD) (converted)): 7.2 h | AUC(0-t) [2, 9]: 8150 ng·h/mL | Cmax [2, 9]: 1340 ng/mL | Tmax ([2]; oral, 140 mg, 140 mg, Cycle 1 D15, read-out: Tmax (median, range)): 2 h | half-life ([2]; oral, 140 mg, 140 mg, Cycle 1 D15, read-out: t½ (mean, SD) (converted)): 10.4 h | AUC(0-t) [2, 10]: 14700 ng·h/mL | Cmax [2, 10]: 1770 ng/mL | Tmax ([2]; oral, 210 mg, 210 mg, Cycle 1 D1, read-out: Tmax (median, range)): 3 h | half-life ([2]; oral, 210 mg, 210 mg, Cycle 1 D1, read-out: t½ (mean, SD) (converted)): 7.8 h | AUC(0-t) [2, 11]: 27600 ng·h/mL | Cmax [2, 11]: 2940 ng/mL | Tmax ([2]; oral, 210 mg, 210 mg, Cycle 1 D15, read-out: Tmax (median, range)): 2 h | half-life ([2]; oral, 210 mg, 210 mg, Cycle 1 D15, read-out: t½ (mean, SD) (converted)): 7.7 h | Tmax ([2]; oral, patients taking proton pump inhibitors (PPI), read-out: maximum Tmax value observed): ~8 h | Tmax ([2]; oral, patients taking proton pump inhibitors (PPI), read-out: median Tmax range): 1 to 6 h | half-life ([2]; oral, C1D1, read-out: mean terminal half-life across the dose cohorts): 6.7 to 9.5 h | Tmax ([2]; po, single oral 20 mg to 210 mg, C1D1, read-out: median Tmax values across the dose cohorts): 1 to 4 h | accumulation following repeated administration ([2]; majority of patients, 14 days): < 2 fold | accumulation beyond Day 15 ([2]; pre-dose concentrations over multiple cycles): no accumulation was apparent

From US20260216176A1, “USE OF PCLX-001 OR PCLX-002 AS A RADIOSENSITIZER” (ACYLEX PHARMACEUTICALS INC., priority 2023, published 2026)
